Source: patent US11084800B2 (Achillion Pharmaceuticals, Inc., priority 2017, dated 2021)
pIC50: −log10 of the molar value.

target: Human Factor D (Homo sapiens (Human), UniProt P00746); experiment: Human Factor D Assay; type: biochemical; conditions: Factor D inhibition, assay of Example 10; read-out: IC5 (Stars)
Outline: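 Serum-purified Factor D (80 nM final) preincubated 5 min at room temperature with compound in 50 mM Tris, 1 M NaCl, pH 7.5. Z-L-Lys-SBz and DTNB added at 100 μM each; A405 followed every 30 s for 30 min. IC50 from nonlinear regression of rates versus concentration.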

Human Factor D, sequence (P00746 26-253): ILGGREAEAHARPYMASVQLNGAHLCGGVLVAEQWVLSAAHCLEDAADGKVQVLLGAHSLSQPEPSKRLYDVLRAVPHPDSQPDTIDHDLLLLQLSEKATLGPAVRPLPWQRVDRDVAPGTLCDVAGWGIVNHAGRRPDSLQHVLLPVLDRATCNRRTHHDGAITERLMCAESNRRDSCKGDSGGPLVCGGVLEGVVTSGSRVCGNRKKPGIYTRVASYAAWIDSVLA

| SMILES | pIC50 |
| --- | --- |
| CC(=O)c1nn(CC(=O)N2[C@H](C(=O)NCCCC(=O)O)C[C@@]3(C)C[C@@H]23)c2c(C)cc(-c3cnc(C)nc3)cc12 [Compound 498, 4-((1R,3S,5R)-2-(2-(3-acetyl-7-methyl-5-(2-methylpyrimidin-5-yl)-1H-indazol-1-yl)acetyl)-5-methyl-2-azabicyclo[3.1.0]hexane-3-carboxamido)butanoic acid] | > 6.00 |
| CC(=O)c1nn(CC(=O)N2[C@H](C(=O)Nc3cc(-c4ccccc4)cc(Br)n3)C[C@@]3(C)C[C@@H]23)c2ccc(-c3cnc(C)nc3)cc12 [Compound 547, (1R,3S,5R)-2-(2-(3-acetyl-5-(2-methylpyrimidin-5-yl)-1H-indazol-1-yl)acetyl)-N-(6-bromo-4-phenylpyridin-2-yl)-5-methyl-2-azabicyclo[3.1.0]hexane-3-carboxamide] | > 6.00 |
| CCCNC(=O)c1nn(CC(=O)N2[C@H](C(=O)NCCC)C[C@@]3(C)C[C@@H]23)c2ccc(-c3cnc(C)nc3)cc12 [Compound 487, 1-(2-((1R,3S,5R)-5-methyl-3-(propylcarbamoyl)-2-azabicyclo[3.1.0]hexan-2-yl)-2-oxoethyl)-5-(2-methylpyrimidin-5-yl)-N-propyl-1H-indazole-3-carboxamide] | 5.00 to 6.00 |
| CC(=O)c1nn(CC(=O)N2[C@H](C(=O)Nc3nc(Br)ccc3C)C[C@@]3(Cn4cncn4)C[C@@H]23)c2ccc(-c3cnc(C)nc3)cc12 [Compound 312, (1R,3S,5R)-5-((1H-1,2,4-triazol-1-yl)methyl)-2-(2-(3-acetyl-5-(2-methylpyrimidin-5-yl)-1H-indazol-1-yl)acetyl)-N-(6-bromo-3-methylpyridin-2-yl)-2-azabicyclo[3.1.0]hexane-3-carboxamide] | > 6.00 |
| CC(=O)c1nn(CC(=O)N2[C@H](C(=O)Nc3nc(Br)ccc3C)C[C@@]3(C)C[C@@H]23)c2c(C(O)CF)cc(-c3cnc(C)nc3)cc12 (stereo partly drawn) [Compound 238, (1R,3S,5R)-2-(2-(3-acetyl-7-(2-fluoro-1-hydroxyethyl)-5-(2-methylpyrimidin-5-yl)-1H-indazol-1-yl)acetyl)-N-(6-bromo-3-methylpyridin-2-yl)-5-methyl-2-azabicyclo[3.1.0]hexane-3-carboxamide] | > 6.00 |
| CC(=O)c1nn(CC(=O)N2[C@H](C(=O)Nc3nc(Br)ccc3-c3nnc(C(C)C)o3)C[C@@]3(C)C[C@@H]23)c2ccc(-c3cnc(C)nc3)cc12 [Compound 362, (1R,3S,5R)-2-(2-(3-acetyl-5-(2-methylpyrimidin-5-yl)-1H-indazol-1-yl)acetyl)-N-(6-bromo-3-(5-isopropyl-1,3,4-oxadiazol-2-yl)pyridin-2-yl)-5-methyl-2-azabicyclo[3.1.0]hexane-3-carboxamide] | 5.00 to 6.00 |

same assay, conditions: Table 6; Factor D 80 nM, substrate Z-L-Lys-SBz; read-out: IC50

| SMILES | pIC50 |
| --- | --- |
| CC(=O)c1nn(CC(=O)N2C[C@H]3C[C@H]3[C@H]2C(=O)O)c2c(C)cc(-c3cnc(C)nc3)cc12 [Compound 111, (1R,2S,5S)-3-(2-(3-acetyl-7-methyl-5-(2-methylpyrimidin-5-yl)-1H-indazol-1-yl)acetyl)-3-azabicyclo[3.1.0]hexane-2-carboxylic acid] | < 5.00 |
| CC(=O)c1nn(CC(=O)N2[C@H](C(=O)Nc3nc(Br)ccc3C)C[C@@]3(C)C[C@@H]23)c2ccc(-c3cnc(C)[n+]([O-])c3)cc12 [Compound 64, 5-(3-acetyl-1-(2-((1R,3S,5R)-3-((6-bromo-3-methylpyridin-2-yl)carbamoyl)-5-methyl-2-azabicyclo[3.1.0]hexan-2-yl)-2-oxoethyl)-1H-indazol-5-yl)-2-methylpyrimidine 1-oxide] | > 6.00 |
| CC(=O)c1nn(CC(=O)N2[C@H](C(=O)Nc3nc(Br)ccc3C)C[C@@]3(CN4CC5(CCC5)C4)C[C@@H]23)c2ccc(-c3cnc(C)nc3)cc12 [Compound 67, (1R,3S,5R)-5-(2-azaspiro[3.3]heptan-2-ylmethyl)-2-(2-(3-acetyl-5-(2-methylpyrimidin-5-yl)-1H-indazol-1-yl)acetyl)-N-(6-bromo-3-methylpyridin-2-yl)-2-azabicyclo[3.1.0]hexane-3-carboxamide] | > 6.00 |
